The source of these data is patent US12318452B2, “Degraders of WEE1 kinase” (DANA-FARBER CANCER INSTITUTE, INC., priority 2018, dated 2025).

For test [1], the system named is Ikaros (IKZF1), Aiolos (IKZF3). The test can be described thus: IKZF1 and IKZF3 degradation by immunoblot in MOLT4 cells. In kind it is cell-based. Here is the method: Whole cell lysates for immunoblotting were prepared by pelleting cells from each cell line at 4° C. (300 g) for 5 minutes. The resulting cell pellets were washed 1× with ice-cold PBS and then resuspended in RIPA lysis buffer (Sigma, cat #R0278) supplemented with protease and phosphatase inhibitor tablets (Roche cat #4906845001). Lysates were clarified at 14,000 rpm for 15 minutes at 4° C. prior to quantification by BCA assay (Pierce™, cat #23225). Whole cell lysates were loaded into Bolt 4-12% Bis-Tris Gels (Thermo Fisher, cat #NW04120BOX) and separated by electrophoreses at 95 V for 1.5 hours. The gels were transferred to a nitrocellulose membrane using the iBlot® Gel Transfer at P3 for 7 minutes (Thermo Fisher, cat #IB23001) and then blocked for 1 hour at room temperature in Odyssey® blocking buffer (LICOR® Biosciences, cat #927-50010). Membranes were probed using antibodies against the relevant proteins at 4° C. overnight in 20% Odyssey® Blocking Buffer in 1×TBST. Membranes were then washed three times with 1×TBST (at least 5 minutes per wash) followed by incubation with the IRDye® goat anti-mouse (LICOR®, cat #926-32210) or goat anti-rabbit (LICOR®, cat #926-32211) secondary antibody (diluted 1:10,000) in 20% Odyssey® Blocking Buffer in 1×TBST for 1 hour at room temperature. […]
Background: Immunoblotting shows a protein as a band on a membrane.

Another test concerns the target PLK1 (Homo sapiens, UniProt P53350). Kind of test: PLK1 level by immunoblot in MOLT4 cells. In kind it is cell-based. Here is the method: MOLT4 cells were plated at 1.5 million cells per well in a 6-well plate, with 3 mL of media per well. Cells were then immediately treated with the indicated concentration of the indicated compound and incubated for the indicated amount of time. Cells were collected by transferring each well to a 15 mL conical, centrifuging (1000 rpm for 3 min), then washing the cell pellet 2× with cold PBS. Each cell pellet was then lysed in 100 μL of RIPA lysis buffer (+protease/phosphatase inhibitors). Samples were normalized and prepped in 4×LDS+10% β-mercaptoethanol and boiled for 5 min at 95° C. Lysates were probed for specified proteins by western blotting using the Bolt® system (Life Technologies™)
Immunoblotting: Cells were washed with phosphate-buffered saline (PBS) and then lysed using radioimmunoprecipitation assay (RIPA) buffer supplemented with protease and phosphatase inhibitor cocktail (Roche) on ice for 15 minutes. The lysates were centrifuged at 14,000 rpm for 15 minutes at 4° C. and protein was quantified by bicinchoninic acid (BCA) assay (Pierce™). […]
FIG. 2A is an immunoblot showing that compound 13 degraded Wee1 after a 6-hour treatment in MOLT4 cells, and induced the downstream changes expected from Wee1 loss—including a decrease in phosphorylated cyclin-dependent kinase 1 (pCDK1) (Y15) and an increase in pH 3. […] Proteins of interest were then assessed by western blotting.

Chain of PLK1 (P53350 whole entry): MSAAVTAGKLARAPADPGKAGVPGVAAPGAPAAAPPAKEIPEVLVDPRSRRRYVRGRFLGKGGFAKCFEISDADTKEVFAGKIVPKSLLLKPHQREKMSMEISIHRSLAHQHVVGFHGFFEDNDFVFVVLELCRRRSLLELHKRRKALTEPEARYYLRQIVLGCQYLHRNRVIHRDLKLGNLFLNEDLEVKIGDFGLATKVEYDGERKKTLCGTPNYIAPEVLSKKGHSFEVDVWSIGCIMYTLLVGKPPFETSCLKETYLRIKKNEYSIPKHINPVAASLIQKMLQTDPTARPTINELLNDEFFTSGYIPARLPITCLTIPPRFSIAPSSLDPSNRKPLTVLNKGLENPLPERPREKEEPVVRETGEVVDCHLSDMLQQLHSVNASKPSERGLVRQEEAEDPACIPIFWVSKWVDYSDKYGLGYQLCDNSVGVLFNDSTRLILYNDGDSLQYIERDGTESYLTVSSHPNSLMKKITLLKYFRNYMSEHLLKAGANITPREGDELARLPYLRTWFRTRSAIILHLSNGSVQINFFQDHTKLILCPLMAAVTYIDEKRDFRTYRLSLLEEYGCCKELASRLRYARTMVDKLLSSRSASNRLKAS

Regarding `C=CCn1c(=O)c2cnc(Nc3ccc(N4CCN(CCCNc5cccc6c5C(=O)N(C5CCC(=O)NC5=O)C6=O)CC4)cc3)nc2n1-c1cccc(C(C)(C)O)n1` (stereo not shown) [Compound 13, 4-((3-(4-(4-((2-allyl-1-(6-(2-hydroxypropan-2-yl)pyridin-2-yl)-3-oxo-2,3-dihydro-1H-pyrazolo[3,4-d]pyrimidin-6-yl)amino)phenyl)piperazin-1-yl)propyl)amino)-2-(2,6-dioxopiperidin-3-yl)isoindoline-1,3-dione], the “IKZF1 / IKZF3 degradation after 24 hrs” value in test [1] (24 hrs of drug exposure) was “degradation of both IKZF1 and IKZF3 was apparent”. For the same molecule, the “IKZF1 / IKZF3 degradation at short time points” value in test [1] (short time points (5-hour)) was “no degradation of either IKZF1 or IKZF3”. The PLK1 degradation entry on PLK1 (6-hour treatment) is “not degraded”. In addition, the PLK1 levels result at PLK1 (treated for up to 48 hrs) is recorded as “not reduced”.
